From US10815197B2, “N-sulfonyl benzamides as voltage-gated sodium channel inhibitors” (SHANGHAI HAIYAN PHARMACEUTICAL TECHNOLOGY CO., LTD., priority 2016, dated 2020)

Key:
[1] = Metabolism stability assay, human liver microsomes; assay type: in vitro ADME; settings: for half-life at 1 µM: pH 7.4
Procedure: Assay 4: Metabolism Stability Assay 1. […] Buffer A: 1 L solution of 100 mM potassium dihydrogen phosphate containing 1 mM EDTA (Sigma, V900157-100G) was prepared. Buffer B: 1 L solution of 100 mM dipotassium hydrogen phosphate containing 1 mM EDTA was prepared. Buffer C: 700 mL of buffer B was taken out and titrated with buffer A to pH 7.4. 2. […] 2.2 20 μl (20 mg/mL) of liver microsomes (Corning Lot. NO. 4133007) stock solution was added to 513.4 μl of buffer C on wet ice. 0.75 mg/mL liver microsomal solution was obtained. 2.3 1.5 μl of each of the above-mentioned compound to be tested and ketanserin solution was added to 498.5 μl of liver microsomal solution (0.7 5 mg/mL) respectively on wet ice. 1.5 μM mixed solution of compound to be tested and 1.5 μM mixed solution of ketanserin were obtained. 2.4 At the time points 0, 5, 15, 30, 45, and 60 min, 30 μl of the mixed solution of compound to be tested and 30 μl of the mixed solution of ketanserin were dispensed into the reaction plate on wet ice, respectively. 2.5 5 mg reduced coenzyme II (Roche, 10621706001) was weighed and dissolved in 1 mL of buffer C. 6 mM reduced coenzyme II solution was obtained. The reduced coenzyme II solution was dispensed into the reaction plate. 2.6 Imipramine was dissolved to give a 10 mM solution. 10 μl of imipramine solution was added to 100 mL of blank acetonitrile to generate the internal reference. 2.7 At 0 min, 135 μL of iced acetonitrile (Merck (Lot. 1778229518)) containing the internal reference was added to each well and then 15 μL of buffer C was added. 2.8 The reaction plate was placed into a 37° C. water bath incubator for 5 min. In the reaction plate, 15 μL of reduced coenzyme II solution was added to each well to initiate the reaction, and the timing was started. At the time points of 5, 15, 30, 45, and 60 min, 135 μL of iced acetonitrile containing the internal reference was added to each well to terminate the reaction. 2.9 The reaction plate was sealed with an aluminum film, placed on a vibration mixer and shaken at 500 rpm for 5 min. The plate was then centrifuged in a centrifuge at 3750 rp for 15 min. 2.10 The sample was diluted with pure water in accordance with the ratio of 1:1 and detected by LC/MS. Half-life: 0.693/K (the slope by plotting based on the incubation time and logarithm of the concentration value) Clearance ratio: (0.693/half-life)*(1/protein concentration (0.5 mg/mL))*(proportional factor) Wherein, the K value and the proportional factor were calculated by those skilled in the art according to the methods described in the prior art and contained in the instructions of the liver microsome product.

hNav1.7 = biological target: T1, hNav1.7 (Homo sapiens, UniProt Q15858); test: Manual patch clamp experiment hNav1.7 (CHO-hNav1.7 stable cell line); assay type: cell-based; settings: for inhibition at 0.1 µM: compound at 100 nM, read-out: Inhibition of Nav1.7 100 nM(%); for inhibition at 1 µM: compound at 1000 nM, read-out: Inhibition of Nav1.7 1000 nM(%)
T1 construct: host or cells: CHO
How it was run: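 Whole-cell manual patch clamp on CHO-hNav1.7 or HEK-hNav1.5 cells, extracellular pH 7.3, CsF-based internal. Sodium current elicited by 20 ms steps to −10 mV from either V1/2 holding (with 50 ms −120 mV prepulse) or −120 mV holding, every 10 s; inhibition from current before versus after dosing, IC50 by Hill fit.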

T1 sequence (Q15858 whole entry): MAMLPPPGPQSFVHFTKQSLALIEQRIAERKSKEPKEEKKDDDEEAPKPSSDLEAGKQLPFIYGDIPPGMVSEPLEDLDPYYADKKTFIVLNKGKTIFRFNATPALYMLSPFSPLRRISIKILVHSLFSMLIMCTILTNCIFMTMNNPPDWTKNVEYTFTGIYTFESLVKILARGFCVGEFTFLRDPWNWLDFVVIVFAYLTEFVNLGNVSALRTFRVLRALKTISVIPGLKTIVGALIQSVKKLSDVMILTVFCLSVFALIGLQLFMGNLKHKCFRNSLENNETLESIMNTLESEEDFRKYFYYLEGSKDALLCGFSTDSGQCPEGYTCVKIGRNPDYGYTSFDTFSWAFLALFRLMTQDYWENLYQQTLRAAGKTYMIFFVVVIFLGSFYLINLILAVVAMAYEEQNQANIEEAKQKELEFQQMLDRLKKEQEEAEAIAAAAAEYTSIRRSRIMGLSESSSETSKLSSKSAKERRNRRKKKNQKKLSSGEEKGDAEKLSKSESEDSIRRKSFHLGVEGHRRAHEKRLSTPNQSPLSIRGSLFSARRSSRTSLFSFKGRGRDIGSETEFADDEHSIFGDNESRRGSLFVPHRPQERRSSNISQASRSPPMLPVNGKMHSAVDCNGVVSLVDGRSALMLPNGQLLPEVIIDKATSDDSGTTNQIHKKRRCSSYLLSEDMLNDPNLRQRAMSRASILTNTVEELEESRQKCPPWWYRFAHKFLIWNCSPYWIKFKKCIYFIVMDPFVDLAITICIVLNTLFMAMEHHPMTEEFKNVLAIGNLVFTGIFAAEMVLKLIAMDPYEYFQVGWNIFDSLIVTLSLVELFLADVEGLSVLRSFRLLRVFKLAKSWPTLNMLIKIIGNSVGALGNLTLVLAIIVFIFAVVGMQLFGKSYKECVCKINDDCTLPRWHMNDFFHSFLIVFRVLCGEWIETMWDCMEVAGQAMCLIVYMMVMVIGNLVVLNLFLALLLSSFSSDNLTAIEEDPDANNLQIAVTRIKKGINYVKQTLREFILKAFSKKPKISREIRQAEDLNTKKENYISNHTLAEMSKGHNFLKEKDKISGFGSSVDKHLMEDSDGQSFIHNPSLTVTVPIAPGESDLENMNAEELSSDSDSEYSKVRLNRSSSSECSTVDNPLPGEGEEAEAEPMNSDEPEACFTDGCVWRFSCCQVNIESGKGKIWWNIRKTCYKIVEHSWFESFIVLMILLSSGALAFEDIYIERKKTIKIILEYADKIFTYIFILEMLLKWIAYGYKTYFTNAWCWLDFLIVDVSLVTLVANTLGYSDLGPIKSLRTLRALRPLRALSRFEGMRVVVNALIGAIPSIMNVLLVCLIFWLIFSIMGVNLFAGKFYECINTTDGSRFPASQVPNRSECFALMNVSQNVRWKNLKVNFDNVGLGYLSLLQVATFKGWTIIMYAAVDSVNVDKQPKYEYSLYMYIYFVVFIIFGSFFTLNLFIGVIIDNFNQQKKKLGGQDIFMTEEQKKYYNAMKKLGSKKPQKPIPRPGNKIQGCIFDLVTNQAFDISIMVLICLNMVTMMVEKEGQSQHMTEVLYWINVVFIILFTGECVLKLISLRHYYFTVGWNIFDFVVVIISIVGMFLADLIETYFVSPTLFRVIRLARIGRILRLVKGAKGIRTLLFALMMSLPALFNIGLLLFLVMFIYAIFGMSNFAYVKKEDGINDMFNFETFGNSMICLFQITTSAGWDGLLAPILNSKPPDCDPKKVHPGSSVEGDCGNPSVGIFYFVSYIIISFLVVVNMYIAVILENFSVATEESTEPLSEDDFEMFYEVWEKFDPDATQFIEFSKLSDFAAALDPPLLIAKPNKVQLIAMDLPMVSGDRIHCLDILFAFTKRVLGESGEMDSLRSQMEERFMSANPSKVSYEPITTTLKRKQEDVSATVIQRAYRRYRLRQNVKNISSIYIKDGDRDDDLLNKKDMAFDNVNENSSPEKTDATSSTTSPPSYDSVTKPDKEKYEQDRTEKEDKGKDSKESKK

Clearance [1] [mL/min/kg]	half-life at 1 µM [1] [h]	inhibition at 0.1 µM (hNav1.7) [%]	inhibition at 1 µM (hNav1.7) [%]	IC50 (hNav1.7; read-out: Nav1.7(IC50/nM)) [nM]	T1/2(min) [1]	Structure (SMILES)
20.12	1.44	89.7	102	24.6		Cc1cc(N2CCN(Cc3cc(F)c(C(=O)NS(=O)(=O)C4CC4)cc3Cl)CC2)ccc1Cl [Compound Z-164]
2.20	13.1	89.1	97.2			C[C@@H]1CN(c2ccc(Cl)c(Cl)c2)CCN1Cc1cc(F)c(C(=O)NS(=O)(=O)C2CC2)cc1Cl [Compound Z-172, (R)-5-Chloro-N-(cyclopropylsulfonyl)-4-((4-(3,4-dichlorophenyl)-2-methylpiperazin-1-yl)methyl)-2-fluorobenzamide]
6.20	4.67	93.8	100			O=C(NS(=O)(=O)C1CC1)c1cc(Cl)c(CN2CCN(c3ccc(C4CC4)c(Cl)c3)CC2)cc1F [Compound Z-173]
2.74		83.8	99.2		∞	CCc1cc(C(=O)NS(=O)(=O)C2CC2)c(F)cc1CN1CCN(c2ccc(OC(F)(F)F)cc2)CC1 [Compound Z-189, N-(cyclopropylsulfonyl)-5-ethyl-2-fluoro-4-((4-(4-(trifluoromethoxy)phenyl)piperazin-1-yl)methyl)benzamide]
23.88	1.21	89.1	98.7			CCc1cc(N2CCN(Cc3cc(F)c(C(=O)NS(=O)(=O)C4CC4)cc3Cl)CC2)ccc1Cl [Compound Z-178]
0.00		89.2	98		∞	Cc1ccc(N2CCN(Cc3cc(F)c(C(=O)NS(=O)(=O)C4CC4)cc3Cl)CC2)cc1Cl [Compound Z-177]
